Results reported in US10316017B2, “COT modulators and methods of use thereof” (Gilead Sciences, Inc., priority 2015, dated 2019).

Columns and labels:
[1] = system: TNFα production in LPS-stimulated human monocytes; experiment: Cot Monocyte TNFα Cell Based Assay; settings: Homo sapiens, Monocyte, TNFα in LPS-stimulated human monocytes; read-out: EC50 TNF
Summary of the method: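 Human monocytes (5,000 cells/well) pretreated with compound for 1 hour at 37° C (0.5% DMSO), then stimulated with 50 pg/ml LPS for 4 hours. Total TNFα measured by TR-FRET after overnight antibody incubation at room temp, expressed as percent of control between unstimulated and stimulated cells.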

[2] = biological target: T1, human Cot catalytic domain (30-397 amino acids) (Homo sapiens, UniProt P41279); experiment: High Throughput Cot Biochemical Assay (KinEASE TR-FRET); settings: Cot biochemical HTRF (KinEASE TR-FRET) assay; read-out: IC50 HTRF
T1 construct: Purified recombinant human Cot catalytic domain (30-397 amino acids) was purchased from Cama Biosciences; purchased Cama Biosciences (so in the source)
Summary of the method: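 Recombinant human Cot catalytic domain (aa 30-397), 5 nM, with 1 μM STK3 peptide and 400 μM ATP in MOPS pH 7.0 buffer with MgOAc, DTT, BSA, NP-40, glycerol, 0.1% DMSO. Phosphorylated XL665-peptide detected by Eu-[…] antibody TR-FRET.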

T1 sequence (P41279 30-397): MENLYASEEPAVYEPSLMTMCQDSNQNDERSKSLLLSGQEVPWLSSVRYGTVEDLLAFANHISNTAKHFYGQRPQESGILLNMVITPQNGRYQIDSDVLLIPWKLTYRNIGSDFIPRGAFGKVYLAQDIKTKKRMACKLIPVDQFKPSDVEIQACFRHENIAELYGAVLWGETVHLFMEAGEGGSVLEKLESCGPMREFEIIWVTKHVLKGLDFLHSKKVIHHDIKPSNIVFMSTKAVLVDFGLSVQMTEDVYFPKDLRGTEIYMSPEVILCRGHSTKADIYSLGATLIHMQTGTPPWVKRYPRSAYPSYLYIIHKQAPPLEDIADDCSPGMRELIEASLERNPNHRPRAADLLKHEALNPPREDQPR

Row | SMILES | EC50 [1] [nM] | IC50 [2] [nM]
1 | CC(C)(C)N1CCC(n2cc([C@@H](Nc3cc(Cl)c4ncc(C#N)c(N)c4c3)c3ccccc3)nn2)CC1 [Example 504, (S)-4-amino-6-(((1-(1-(tert-butyl)piperidin-4-yl)-1H-1,2,3-triazol-4-yl)(phenyl)methyl)amino)-8-chloroquinoline-3-carbonitrile] | 8510 | 1780
2 | CC(C)(C)N1CCC(n2cc([C@@H](Nc3cc(Cl)c4ncc(C#N)c(Nc5ccc(F)c(C(F)(F)F)c5)c4c3)c3ccccc3)nn2)CC1 [Example 505, (S)-6-(((1-(1-(tert-butyl)piperidin-4-yl)-1H-1,2,3-triazol-4-yl)(phenyl)methyl)amino)-8-chloro-4-((4-fluoro-3-(trifluoromethyl)phenyl)amino)quinoline-3-carbonitrile] | 2620 | 240
3 | CC(C)(C)N1CCC(n2cc([C@@H](Nc3cc(Cl)c4ncc(C#N)c(N[C@@H]5CCOc6ccccc65)c4c3)c3ccccc3)nn2)CC1 [Example 506, 6-(((S)-(1-(1-(tert-butyl)piperidin-4-yl)-1H-1,2,3-triazol-4-yl)(phenyl)methyl)amino)-8-chloro-4-(((R)-chroman-4-yl)amino)quinoline-3-carbonitrile] | 5290 | 1690
4 | CC(C)(C)N1CCC(n2cc([C@@H](Nc3cc(Cl)c4ncc(C#N)c(N[C@H]5CCOc6ccccc65)c4c3)c3ccccc3)nn2)CC1 [Example 507, 6-(((S)-(1-(1-(tert-butyl)piperidin-4-yl)-1H-1,2,3-triazol-4-yl)(phenyl)methyl)amino)-8-chloro-4-(((S)-chroman-4-yl)amino)quinoline-3-carbonitrile] | 8510 | 741
5 | CCC(Nc1c(C#N)cnc2c(Cl)cc(N[C@@H](c3ccccc3)c3cn(C4CCN(C(C)(C)C)CC4)nn3)cc12)C1CCOCC1 (stereo partly drawn) [Example 508, 6-(((S)-(1-(1-(tert-butyl)piperidin-4-yl)-1H-1,2,3-triazol-4-yl)(phenyl)methyl)amino)-8-chloro-4-((1-(tetrahydro-2H-pyran-4-yl)propyl)amino)quinoline-3-carbonitrile] | > 10000 | 5350
6 | CC1CC(Nc2c(C#N)cnc3c(Cl)cc(N[C@@H](c4ccccc4)c4cn(C5CCN(C(C)(C)C)CC5)nn4)cc23)CC(C)O1 (stereo partly drawn) [Example 509, 6-(((S)-(1-(1-(tert-butyl)piperidin-4-yl)-1H-1,2,3-triazol-4-yl)(phenyl)methyl)amino)-8-chloro-4-((2,6-dimethyltetrahydro-2H-pyran-4-yl)amino) quinoline-3-carbonitrile] | 2990 | 206
7 | CC(=O)N(C)c1cccc([C@H](Nc2cc(Cl)c3ncc(C#N)c(Nc4cnc(F)c(F)c4)c3c2)c2cn(CC(F)(F)F)nn2)c1 [Example 510, (S)-N-(3-(((8-chloro-3-cyano-4-((5,6-difluoropyridin-3-yl)amino)quinolin-6-yl)amino)(1-(2,2,2-trifluoroethyl)-1H-1,2,3-triazol-4-yl)methyl)phenyl)-N-methylacetamide] | 321 | 5
8 | N#Cc1cnc2c(Cl)cc(N[C@@H](c3ccc(F)cc3)c3cn(C4COC4)nn3)cc2c1Nc1cnc(F)c(F)c1 [Example 511, (S)-8-chloro-4-((5,6-difluoropyridin-3-yl)amino)-6-(((4-fluorophenyl)(1-(oxetan-3-yl)-1H-1,2,3-triazol-4-yl)methyl)amino)quinoline-3-carbonitrile] | 701 | 17
9 | N#Cc1cnc2c(Cl)cc(N[C@@H](c3ccc(F)cc3)c3cn(CC(F)(F)F)nn3)cc2c1Nc1cnc(F)c(F)c1 [Example 512, (S)-8-chloro-4-((5,6-difluoropyridin-3-yl)amino)-6-(((4-fluorophenyl)(1-(2,2,2-trifluoroethyl)-1H-1,2,3-triazol-4-yl)methyl)amino)quinoline-3-carbonitrile] | 1100 | 85
10 | N#Cc1cnc2c(Cl)cc(N[C@@H](c3ccc(F)cc3)c3c[nH]nn3)cc2c1Nc1cnc(F)c(F)c1 [Example 513, (S)-8-chloro-4-((5,6-difluoropyridin-3-yl)amino)-6-(((4-fluorophenyl)(1H-1,2,3-triazol-4-yl)methyl)amino) quinoline-3-carbonitrile] | 1340 | 22
11 | CCN1CC[C@@H](n2cc([C@@H](Nc3cc(Cl)c4ncc(C#N)c(Nc5ccc(F)c(Cl)c5)c4c3)c3ccccc3)nn2)[C@H](O)C1 [Example 514, 8-chloro-4-((3-chloro-4-fluorophenyl)amino)-6-(((S)-(1-((3R,4R)-1-ethyl-3-hydroxypiperidin-4-yl)-1H-1,2,3-triazol-4-yl)(phenyl)methyl)amino) quinoline-3-carbonitrile] | 62 | 2
12 | N#Cc1cnc2c(Cl)cc(N[C@@H](c3ccccc3)c3cn([C@@H]4CCNC[C@H]4O)nn3)cc2c1Nc1ccc(F)c(Cl)c1 [Example 515, 8-chloro-4-((3-chloro-4-fluorophenyl)amino)-6-(((S)-(1-((3R,4R)-3-hydroxypiperidin-4-yl)-1H-1,2,3-triazol-4-yl)(phenyl)methyl)amino) quinoline-3-carbonitrile] | 324 | 1
13 | CCN1CCC(n2cc([C@@H](Nc3cc(Cl)c4ncc(C#N)c(Nc5cccc(Cl)c5)c4c3)c3ccccc3)nn2)[C@H](O)C1 (some centres unmarked) [Example 516] | 92 | 4
14 | N#Cc1cnc2c(Cl)cc(N[C@@H](c3ccccc3)c3cn([C@@H]4CCN(C5COC5)C[C@H]4O)nn3)cc2c1Nc1cccc(Cl)c1 [Example 517, 8-chloro-4-((3-chlorophenyl)amino)-6-(((S)-(1-((3R,4R)-3-hydroxy-1-(oxetan-3-yl)piperidin-4-yl)-1H-1,2,3-triazol-4-yl)(phenyl)methyl)amino) quinoline-3-carbonitrile] | 255 | 10
15 | N#Cc1cnc2c(Cl)cc(N[C@@H](c3cccc(CN4CC(F)(F)C4)c3)c3c[nH]nn3)cc2c1Nc1ccc(Cl)c(Cl)c1F [Example 518, (S)-8-chloro-4-((3,4-dichloro-2-fluorophenyl)amino)-6-(((3-((3,3-difluoroazetidin-1-yl)methyl)phenyl)(1H-1,2,3-triazol-4-yl)methyl)amino) quinoline-3-carbonitrile] | 570 | 52

Second part, the molecule after the results:

Row | EC50 [1] [nM] | IC50 [2] [nM] | SMILES
16 | 3150 | 301 | N#Cc1cnc2c(Cl)cc(NC(c3ccccc3)c3nn[nH]c3CN3CCOCC3)cc2c1Nc1ccc(F)c(Cl)c1 (centres unmarked) [Example 519, 8-chloro-4-((3-chloro-4-fluorophenyl)amino)-6-(((5-(morpholinomethyl)-1H-1,2,3-triazol-4-yl)(phenyl)methyl)amino) quinoline-3-carbonitrile]
17 | > 10000 | > 10000 | CC(C)(C)N1CCC(n2cc([C@@H](Nc3cc(Cl)c4ncc(C#N)c(NS(=O)(=O)c5ccccc5)c4c3)c3ccccc3)nn2)CC1 [Example 520, (S)-N-(6-(((1-(1-(tert-butyl)piperidin-4-yl)-1H-1,2,3-triazol-4-yl)(phenyl)methyl)amino)-8-chloro-3-cyanoquinolin-4-yl)benzenesulfonamide]
18 | 934 | 41 | CC(C)(C)N1CCC(n2cc([C@@H](Nc3cc(Cl)c4ncc(C#N)c(Nc5cnc(Cl)c(F)c5)c4c3)c3ccccc3)nn2)CC1 [Example 521, (S)-6-(((1-(1-(tert-butyl)piperidin-4-yl)-1H-1,2,3-triazol-4-yl)(phenyl)methyl)amino)-8-chloro-4-((6-chloro-5-fluoropyridin-3-yl)amino)quinoline-3-carbonitrile]
19 | 9720 | 786 | C[C@H](Nc1c(C#N)cnc2c(Cl)cc(N[C@@H](c3ccccc3)c3cn(C4CCN(C(C)(C)C)CC4)nn3)cc12)C1CCOCC1 [Example 522, 6-(((S)-(1-(1-(tert-butyl)piperidin-4-yl)-1H-1,2,3-triazol-4-yl)(phenyl)methyl)amino)-8-chloro-4-(((S)-1-(tetrahydro-2H-pyran-4-yl)ethyl)amino)quinoline-3-carbonitrile]
20 | 4880 | 300 | C[C@@H](Nc1c(C#N)cnc2c(Cl)cc(N[C@@H](c3ccccc3)c3cn(C4CCN(C(C)(C)C)CC4)nn3)cc12)C1CCCCC1 [Example 523, 6-(((S)-(1-(1-(tert-butyl)piperidin-4-yl)-1H-1,2,3-triazol-4-yl)(phenyl)methyl)amino)-8-chloro-4-(((R)-1-cyclohexylethyl)amino) quinoline-3-carbonitrile]
21 | > 10000 | 787 | C[C@@H](Nc1c(C#N)cnc2c(Cl)cc(N[C@@H](c3ccccc3)c3cn(C4CCN(C(C)(C)C)CC4)nn3)cc12)C1CCOCC1 [Example 524, 6-(((S)-(1-(1-(tert-butyl)piperidin-4-yl)-1H-1,2,3-triazol-4-yl)(phenyl)methyl)amino)-8-chloro-4-(((R)-1-(tetrahydro-2H-pyran-4-yl)ethyl)amino) quinoline-3-carbonitrile]
22 | 4260 | 726 | CC(C)(C)N1CCC(n2cc([C@@H](Nc3cc(Cl)c4ncc(C#N)c(Nc5ccc(F)c(OC(F)(F)F)c5)c4c3)c3ccccc3)nn2)CC1 [Example 525, (S)-6-(((1-(1-(tert-butyl)piperidin-4-yl)-1H-1,2,3-triazol-4-yl)(phenyl)methyl)amino)-8-chloro-4-((4-fluoro-3-(trifluoromethoxy)phenyl)amino)quinoline-3-carbonitrile]
